The record followed here is patent publication US11839613B2, “Pyrimidine derivatives as PGE2 receptor modulators” (IDORSIA PHARMACEUTICALS LTD, priority 2017, dated 2023).

As a reminder, the IC50 is the concentration that inhibits the measured activity by half.

Read-outs that look alike come from different tables or passages of the source.

Experiment [1] concerns the target T1, PTGER4 (EP4) (Homo sapiens (Human), UniProt P35408).
Source text: (§1) The system is based on the Enzyme Fragment Complementation Technology. Two complementing fragments of the b-galactosidase enzyme are expressed within stably transfected cells. The larger portion of b-gal, termed EA for Enzyme Acceptor, is fused to the C-terminus of b-arrestin 2. The smaller fragment, termed ProLink™ tag, is fused to PTGER2 (EP2) or PTRGER4 (EP4) at the C-terminus. Upon activation, b-arrestin is recruited which forces the interaction of ProLink and EA, allowing complementation of the two fragments of b-gal and the formation of a functional enzyme which is capable of hydrolysing the substrate and generating a chemiluminescent signal.
(§2) Plate is incubated at 37° C., 5% CO2 for 24 hours.
(§3) Stock solutions of test compounds are made at a concentration of 10 mM in DMSO, and serially diluted in DMSO to concentrations required for inhibition dose response curves (tested concentration range 10 μM-2 nM or 1 μM-0.2 nM).
(§4) Five microliters of diluted compounds are transferred into the assay plate. Plate is pre-incubated 15 minutes at 37° C. Then five microliters of PGE2 (final conc. 20 nM) are transferred into the assay plate. Plate is incubated 120 minutes at 37° C.
(§5) Twelve I of reagent are transferred to the assay plate and incubate for 1 hour at RT in the dark. Luminescence counts are read on a BMG Fluostar Optima reader according to manufacturer's instructions.
(§6) For each compound concentration calculate of the percentage of activity compared to DMSO control value as average ±STDEV. (each concentration is measured in duplicate)
A further experiment addresses PTGER2 (EP2) (Homo sapiens (Human), UniProt P43116). In words: hEP2 b-arrestin assay (PathHunter HEK 293 PTGER2 b-arrestin cells). The class given is cell-based. Conditions: antagonistic activity, beta-arrestin assay; read-out: hEP2 b-arr IC50. As for the experimental part:
Plate is pre-incubated 15 minutes at 37° C. Then five microliters of PGE2 (final conc. 5 μM) are transferred into the assay plate. Plate is incubated 120 minutes at 37° C.
(each concentration is measured in duplicate)

The target in the next experiment is EP2 (Homo sapiens (Human), UniProt P43116). Nature of the experiment: hEP2 cAMP assay (SF295 glioblastoma cells, HTRF cAMP). Conditions: antagonistic activity. The class given is cell-based. The method, boiled down: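 PGE2-driven cAMP accumulation was measured by HTRF in SF295 cells, which express endogenous EP2 only. Cells in assay buffer with 2 mM IBMX were pre-incubated 45 min at RT, then incubated 30 min at RT. Detection used competition between cellular cAMP and d2-cAMP for a cryptate anti-cAMP antibody.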
Chain of EP2 (P43116 whole entry): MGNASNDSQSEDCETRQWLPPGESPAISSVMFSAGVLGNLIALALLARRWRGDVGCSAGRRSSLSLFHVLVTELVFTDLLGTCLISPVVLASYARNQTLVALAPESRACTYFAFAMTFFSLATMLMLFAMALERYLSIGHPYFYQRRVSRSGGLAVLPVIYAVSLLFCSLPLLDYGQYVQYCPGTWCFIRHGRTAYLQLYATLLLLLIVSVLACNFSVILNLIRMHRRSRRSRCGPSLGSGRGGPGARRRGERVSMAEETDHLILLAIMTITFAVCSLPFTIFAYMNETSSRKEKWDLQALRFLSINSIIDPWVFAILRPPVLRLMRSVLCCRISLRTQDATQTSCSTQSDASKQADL
For orientation: cAMP levels reflect the balance of adenylyl cyclase and phosphodiesterase activity.

For another experiment, the target named is EP4 (Homo sapiens (Human), UniProt P35408). In words: hEP4 cAMP assay (BT549 breast cancer cells, HTRF cAMP). The experiment is classed as cell-based. The note with it: antagonistic activity, PGE2 6 nM. The method, boiled down:
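cAMP accumulation quantified by HTRF competition between cellular cAMP and d2-labeled cAMP for cryptate anti-cAMP antibody. Cells: endogenously EP4-expressing BT549, buffer with 2 mM IBMX; 45 min RT compound preincubation preceded 30 min RT challenge with PGE2 at 6 nM final.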

Experiment [2] addresses T1, PTGER4 (EP4). In words: cell-based.
Source text: as §1, §2, §3, §4, §5, §6

Chain of PTGER2 (EP2) (P43116 whole entry): as above
Chain of EP4 (P35408 whole entry): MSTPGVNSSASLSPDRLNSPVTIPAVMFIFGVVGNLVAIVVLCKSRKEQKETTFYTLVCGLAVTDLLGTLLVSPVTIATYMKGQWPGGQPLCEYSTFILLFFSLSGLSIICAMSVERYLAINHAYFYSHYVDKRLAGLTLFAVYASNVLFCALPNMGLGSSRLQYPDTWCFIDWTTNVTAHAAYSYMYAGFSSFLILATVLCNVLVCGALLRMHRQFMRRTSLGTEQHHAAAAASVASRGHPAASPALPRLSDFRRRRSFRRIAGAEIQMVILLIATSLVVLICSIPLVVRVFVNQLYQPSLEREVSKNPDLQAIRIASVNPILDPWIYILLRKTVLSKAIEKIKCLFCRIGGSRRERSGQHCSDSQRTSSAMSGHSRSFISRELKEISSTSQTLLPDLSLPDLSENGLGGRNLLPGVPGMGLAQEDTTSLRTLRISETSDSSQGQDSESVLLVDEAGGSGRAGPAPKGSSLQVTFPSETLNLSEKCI
T1 sequence (P35408 whole entry): as above

With `CCOc1cc(-c2cc(NCCc3cc(F)c4sccc4c3)ncn2)ccc1C(=O)NCC(C)(C)O` [Example 463], the IC50 at PTGER4 (EP4) [1] worked out at 223 nM; at PTGER2 (EP2), 934 nM.

As to “(4-{6-[2-(4-Fluoro-benzo[b]thiophen-5-yl)-ethylamino]-pyrimidin-4-yl}-2-trifluoromethoxy-phenyl)-acetic acid [Example 489]”, the IC50 at PTGER4 (EP4) [1] turned out to be 128 nM; on PTGER2 (EP2), 231 nM.

In the case of `O=C(O)c1ccc(-c2cc(NCCc3c(F)cc4ccccc4c3F)ncn2)cc1OC1CCC1` [Ex 333], the figures for the IC50 against PTGER4 (EP4) [1] and on PTGER2 (EP2) were 128 nM and 359 nM, respectively.

Take `COc1cc2sccc2cc1CCNc1cc(-c2ccc(C(=O)O)c(SC)c2)ncn1` [Ex 18, 4-{6-[2-(6-Methoxy-benzo[b]thiophen-5-yl)-ethylamino]-pyrimidin-4-yl}-2-methylsulfanyl-benzoic acid]: the half-inhibitory concentration (IC50) against EP2 worked out at 4 nM; at PTGER2 (EP2), 6 nM; at EP4 it was 10 nM; on PTGER4 (EP4) [2], 70 nM.

`CCOc1cc(-c2cc(NCCc3ccc4c(c3)OCO4)ncn2)sc1-c1noc(=O)[nH]1` [Example 344, 3-{5-[6-(2-Benzo[1,3]dioxol-5-yl-ethylamino)-pyrimidin-4-yl]-3-ethoxy-thiophen-2-yl}-[1,2,4]oxadiazol-5(4H)-one]: the IC50 against EP2 was 33 nM; on PTGER2 (EP2), 33 nM; against EP4, 14 nM; against PTGER4 (EP4) [2] it was 39 nM.

For the molecule `COc1cc2c(cc1CCNc1cc(-c3ccc4cc(C(=O)O)oc4c3)ncn1)OCCO2` [Ex 81, 6-{6-[2-(7-Methoxy-2,3-dihydro-benzo[1,4]dioxin-6-yl)-ethylamino]-pyrimidin-4-yl}-benzofuran-2-carboxylic acid], the IC50 came out at 123 nM at EP2, 122 nM at PTGER2 (EP2), 164 nM on EP4 and 1840 nM against PTGER4 (EP4) [2].

In the case of `CCOc1cc(-c2cc(NCCc3ccc4ccn(C)c4c3)ncn2)sc1C(=O)O` [Ex 42, 3-Ethoxy-5-{6-[2-(1-methyl-1H-indol-6-yl)-ethylamino]-pyrimidin-4-yl}-thiophene-2-carboxylic acid], the half-maximal inhibitory concentration (IC50) amounted to 137 nM on EP2, 240 nM on PTGER2 (EP2), 21 nM at EP4 and 25 nM against PTGER4 (EP4) [2].

As for `COc1cc2c(cc1CCNc1cc(-c3ccc4c(C(=O)O)c[nH]c4c3)ncn1)OCCO2` [Ex 323], the concentration for half-maximal inhibition (IC50) against EP2 was 114 nM; on PTGER2 (EP2), 438 nM; against EP4, 835 nM; against PTGER4 (EP4) [2], 1900 nM.

`CCOc1cc(-c2cc(NCCc3c(OC)cc4occc4c3C)ncn2)ccc1CC(=O)O` [Ex 157, (2-Ethoxy-4-{6-[2-(6-methoxy-4-methyl-benzofuran-5-yl)-ethylamino]-pyrimidin-4-yl}-phenyl)-acetic acid]: the IC50 is 22 nM at EP2, 7 nM on PTGER2 (EP2), 156 nM at EP4 and 89 nM against PTGER4 (EP4) [2].

In the case of `CCOc1cc(-c2cc(NCCc3cc4c(cc3F)OCCN4C)ncn2)sc1C(=O)O` [Ex 104, 3-Ethoxy-5-{6-[2-(7-fluoro-4-methyl-3,4-dihydro-2H-benzo[1,4]oxazin-6-yl)-ethylamino]-pyrimidin-4-yl}-thiophene-2-carboxylic acid], the 50% inhibitory concentration (IC50) is 13 nM at EP2, 12 nM at PTGER2 (EP2), 71 nM on EP4 and 91 nM on PTGER4 (EP4) [2].

Take `CCCc1cc(-c2cc(NCCc3ccc4ccccc4c3C)ncn2)ccc1C(=O)O` [Ex 28, 4-{6-[2-(1-Methyl-naphthalen-2-yl)-ethylamino]-pyrimidin-4-yl}-2-propyl-benzoic acid]: the half-maximal inhibitory concentration (IC50) on EP2 is 74 nM; on PTGER2 (EP2) it was 135 nM; on EP4, 61 nM; against PTGER4 (EP4) [2], 96 nM.

As to `CCOc1cc2c(cc1CCNc1cc(-c3cc(OCC)c(C(=O)O)s3)ncn1)OCCO2` [Ex 39, 3-Ethoxy-5-{6-[2-(7-ethoxy-2,3-dihydro-benzo[1,4]dioxin-6-yl)-ethylamino]-pyrimidin-4-yl}-thiophene-2-carboxylic acid], the IC50 came to 2 nM on EP2, 4 nM on PTGER2 (EP2), 19 nM against EP4 and 14 nM against PTGER4 (EP4) [2].
